Consider 19 molecules from ChEMBL document CHEMBL1133322, “The synthesis and vasopressin (AVP) antagonist activity of a novel series of N-aroyl-2,4,5,6-tetrahydropyrazolo[3,4-d]thieno[3,2-b]azepines” (Bioorg Med Chem Lett, 2000).

Assay [1] concerns Rattus norvegicus. Put plainly: Urine volume was measured after 4 hours following oral compound dose of 10 mg/kg in rats deprived of food or water (water-loaded 30 mL/kg + 0.4 ug/kg of AVP intraperitoneal). In kind it is functional.
Assay [2] relates to Rattus norvegicus. Put plainly: Urine volume was measured after 4 hours following oral compound dose of 3 mg/kg in rats deprived with food or water. Format: functional.
The subject of assay [3] is Rattus norvegicus. Put plainly: Urine volume was measured after 4 hours following oral compound dose of 10 mg/kg in a volume of 10 mL/kg (20% dimethylsulfoxide in 2.5% preboiled starch) in rats deprived with food or water. Format: functional.
Assay [4] deals with T1, Vasopressin V1a receptor (Homo sapiens, UniProt P37288). Put plainly: In vitro binding affinity to human V1a receptor.
Target sequence in this assay (P37288 whole entry): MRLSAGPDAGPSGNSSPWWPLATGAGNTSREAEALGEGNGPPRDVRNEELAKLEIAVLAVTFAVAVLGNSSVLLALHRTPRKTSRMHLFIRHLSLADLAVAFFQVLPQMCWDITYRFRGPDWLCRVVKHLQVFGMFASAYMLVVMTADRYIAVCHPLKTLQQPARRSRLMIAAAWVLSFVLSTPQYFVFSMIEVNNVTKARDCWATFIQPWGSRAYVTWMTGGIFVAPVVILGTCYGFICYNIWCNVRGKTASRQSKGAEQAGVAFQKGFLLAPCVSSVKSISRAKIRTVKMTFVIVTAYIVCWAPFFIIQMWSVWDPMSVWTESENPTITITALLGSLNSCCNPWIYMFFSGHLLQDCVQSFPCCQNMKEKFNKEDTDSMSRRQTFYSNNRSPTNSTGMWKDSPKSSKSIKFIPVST
Assay [5] concerns the target T2, Vasopressin V2 receptor (Rattus norvegicus, UniProt Q00788). The assay is described as follows: Binding affinity to rat V2 receptor.
In assay [6] the target is Vasopressin V1a receptor (Rattus norvegicus, UniProt P30560). Put plainly: In vitro binding affinity for rat V1a receptor.
The target in assay [7] is T3, Vasopressin V2 receptor (Homo sapiens, UniProt P30518). The assay is described as follows: In vitro binding affinity to human V2 receptor.
The target in assay [8] is T2, Vasopressin V2 receptor. The assay is described as follows: In vitro for its binding affinity to rat V2 receptor.
Assay [9] has as its target Vasopressin V1a receptor (Rattus norvegicus) (UniProt P30560). The assay is described as follows: In vitro inhibition against rat V1a receptor at 10 uM.
In assay [10] the target is T1, Vasopressin V1a receptor. Put plainly: In vitro inhibition against human V1a receptor at 10 uM.
Target sequence in this assay (P37288 whole entry, looked up): as the sequence (P37288 whole entry) above
The target of assay [11] is T3, Vasopressin V2 receptor. Put plainly: In vitro inhibition against human V2 receptor at 10 uM.

T3 sequence (P30518 whole entry): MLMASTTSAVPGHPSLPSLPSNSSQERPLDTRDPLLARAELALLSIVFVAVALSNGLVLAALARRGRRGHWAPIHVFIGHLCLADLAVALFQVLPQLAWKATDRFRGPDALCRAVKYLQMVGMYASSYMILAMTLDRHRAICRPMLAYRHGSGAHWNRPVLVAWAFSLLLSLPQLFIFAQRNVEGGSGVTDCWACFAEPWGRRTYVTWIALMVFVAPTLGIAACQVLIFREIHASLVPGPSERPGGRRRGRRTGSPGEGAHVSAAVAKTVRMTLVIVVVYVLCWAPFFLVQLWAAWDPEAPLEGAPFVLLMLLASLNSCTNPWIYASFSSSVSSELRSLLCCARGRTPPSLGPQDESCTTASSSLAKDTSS
Vasopressin V1a receptor (Rattus norvegicus, UniProt P30560), sequence (P30560 whole entry): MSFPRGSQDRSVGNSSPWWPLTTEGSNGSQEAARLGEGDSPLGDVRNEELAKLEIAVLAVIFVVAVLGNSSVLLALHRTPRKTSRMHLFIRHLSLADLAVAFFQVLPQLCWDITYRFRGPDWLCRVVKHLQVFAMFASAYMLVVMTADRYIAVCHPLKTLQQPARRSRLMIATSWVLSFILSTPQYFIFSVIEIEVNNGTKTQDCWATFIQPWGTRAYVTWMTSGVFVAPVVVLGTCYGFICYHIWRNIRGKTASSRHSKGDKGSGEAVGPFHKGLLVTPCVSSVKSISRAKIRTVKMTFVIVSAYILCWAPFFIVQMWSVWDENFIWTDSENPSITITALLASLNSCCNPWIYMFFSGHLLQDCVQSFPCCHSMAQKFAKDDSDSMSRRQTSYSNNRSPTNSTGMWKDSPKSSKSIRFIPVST
T2 sequence (Q00788 whole entry): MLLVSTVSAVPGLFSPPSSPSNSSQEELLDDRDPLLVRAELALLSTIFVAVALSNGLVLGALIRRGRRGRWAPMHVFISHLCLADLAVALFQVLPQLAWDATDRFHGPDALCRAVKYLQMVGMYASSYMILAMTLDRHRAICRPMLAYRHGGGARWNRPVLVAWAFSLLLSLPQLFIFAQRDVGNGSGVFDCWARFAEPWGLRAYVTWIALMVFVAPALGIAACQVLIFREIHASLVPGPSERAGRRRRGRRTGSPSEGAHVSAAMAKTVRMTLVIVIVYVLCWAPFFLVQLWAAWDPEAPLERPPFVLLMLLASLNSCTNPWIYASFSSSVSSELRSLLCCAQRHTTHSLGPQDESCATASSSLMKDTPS
Vasopressin V1a receptor (Rattus norvegicus), sequence (P30560 whole entry, looked up): as the sequence (P30560 whole entry) above

For the molecule `Cn1cc2c(n1)-c1sccc1N(C(=O)c1ccc(NC(=O)C3CCCCC3)cc1)CC2`, the Urine volume in the assay with Rattus norvegicus [1] came to 9 ml 4hr-1.
As to `Cc1ccc(F)cc1C(=O)Nc1ccc(C(=O)N2Cc3cccn3Cc3ccccc32)c(Cl)c1` [LIXIVAPTAN], the figures for the Urine volume in the assay on Rattus norvegicus [2] and in the assay with Rattus norvegicus [3] were 20 ml 4hr-1 and 22 ml 4hr-1, respectively.
As for `Cc1ccc(F)cc1C(=O)Nc1ccc(C(=O)N2CCCCc3sccc32)c(Cl)c1`, the Urine volume in the assay with Rattus norvegicus [1] stood at 4 ml 4hr-1.
With `Cc1ccccc1C(=O)Nc1ccc(C(=O)N2CCc3cn(C)nc3-c3sccc32)cc1`, the IC50 (commonly the midpoint of a concentration-inhibition curve) was found to be 1740 nM on Vasopressin V1a receptor [4], 24 nM on Vasopressin V2 receptor [5], 2010 nM at Vasopressin V1a receptor [6] and 220 nM on Vasopressin V2 receptor [7]. In the assay on Rattus norvegicus [3], this molecule registered a Urine volume of 3 ml 4hr-1.
Take `O=C(Nc1ccc(C(=O)N2CCCCc3sccc32)c(Cl)c1)c1ccccc1-c1ccccc1`: the IC50 on Vasopressin V1a receptor [4] turned out to be 86 nM; at Vasopressin V2 receptor [5], 1.2 nM. The Urine volume with Rattus norvegicus [3] is listed as 19 ml 4hr-1.
Turning to `O=C(Nc1ccc(C(=O)N2CCCCc3sc(Cl)cc32)c(Cl)c1)c1ccccc1-c1ccccc1`, in the assay with Rattus norvegicus [3], the Urine volume turned out to be 22 ml 4hr-1.
For `Cc1ccc(F)cc1C(=O)Nc1ccc(C(=O)N2CCc3c[nH]nc3-c3sccc32)cc1`, the IC50 at Vasopressin V2 receptor [8] came to 69 nM; on Vasopressin V2 receptor [7] it was 71 nM. Further, the Urine volume in the assay on Rattus norvegicus [1] is reported as 18 ml 4hr-1.
Take `O=C(Nc1ccc(C(=O)N2CCc3c[nH]nc3-c3sccc32)c(Cl)c1)c1cc(Cl)ccc1F`: the Urine volume in the assay with Rattus norvegicus [3] came to 12 ml 4hr-1. In addition, the inhibition (in general, the relative decrease from the control value, in per cent) in assay [9] is 18%.
In the case of `O=C(Nc1ccc(C(=O)N2Cc3cccn3Cc3ccccc32)cc1)c1ccc(Cl)cc1Cl`, in the assay on Rattus norvegicus [1], the Urine volume is reported as 16 ml 4hr-1.
Turning to `O=C(Nc1ccc(C(=O)N2Cc3cccn3Cc3ccccc32)c(Cl)c1)c1ccccc1-c1ccccc1`, the Urine volume in the assay on Rattus norvegicus [2] was 20 ml 4hr-1; in the assay with Rattus norvegicus [3], 27 ml 4hr-1. In addition, the IC50 on Vasopressin V1a receptor [4] was found to be 370 nM; on Vasopressin V2 receptor [7] it was 2.7 nM.
Turning to `O=C(Nc1ccc(C(=O)N2CCCCc3sc(Cl)cc32)cc1)c1ccc(Cl)cc1Cl`, in the assay on Rattus norvegicus [1], the Urine volume was determined as 8 ml 4hr-1.
As to `Cc1ccc(F)cc1C(=O)Nc1ccc(C(=O)N2CCc3c[nH]nc3-c3sccc32)c(Cl)c1`, the inhibition against Vasopressin V1a receptor [10] was 69%. Also, the IC50 at Vasopressin V2 receptor [8] came to 6 nM; on Vasopressin V1a receptor [6] it was 12400 nM. For the same molecule, the Urine volume in the assay with Rattus norvegicus [3] stood at 7 ml 4hr-1.
Consider `Cc1ccccc1C(=O)Nc1ccc(C(=O)N2CCc3c[nH]nc3-c3sccc32)cc1`, for which the IC50 on Vasopressin V1a receptor [4] came out at 240 nM; on Vasopressin V2 receptor [8] it was 120 nM; on Vasopressin V1a receptor [6] it was 2100 nM; on Vasopressin V2 receptor [7], 130 nM. Further, the Urine volume in the assay on Rattus norvegicus [1] is on record as 21 ml 4hr-1.
`Cc1ccccc1C(=O)Nc1ccc(C(=O)N2CCc3cn(C(=O)c4ccccc4C)nc3-c3sccc32)cc1`: the inhibition at Vasopressin V1a receptor [10] and against Vasopressin V2 receptor [11] was 88% in each case. In the assay on Rattus norvegicus [1], the Urine volume is listed as 14 ml 4hr-1.
On to `O=C(Nc1ccc(C(=O)N2CCCCc3sc(Cl)cc32)cc1)c1ccccc1-c1ccccc1`, for which the IC50 on Vasopressin V1a receptor [4] amounted to 82 nM; at Vasopressin V2 receptor [5], 3.2 nM. Besides, the Urine volume with Rattus norvegicus [3] is recorded as 20 ml 4hr-1.
Regarding `O=C(Nc1ccc(C(=O)N2CCc3c[nH]nc3-c3sccc32)cc1)c1ccc(F)cc1Cl`, the Urine volume in the assay on Rattus norvegicus [3] was 15 ml 4hr-1. This molecule showed an IC50 at Vasopressin V2 receptor [7] of 140 nM.
As to `O=C(Nc1ccc(C(=O)N2Cc3cccn3Cc3ccccc32)cc1)c1ccccc1-c1ccccc1`, in the assay with Rattus norvegicus [3], the Urine volume is reported as 21 ml 4hr-1.
For the molecule `Cn1cc2c(n1)-c1sccc1N(C(=O)c1ccc(NC(=O)c3ccc(Cl)cc3Cl)cc1)CC2`, the IC50 on Vasopressin V1a receptor [4] was 4100 nM; at Vasopressin V2 receptor [5], 38 nM; on Vasopressin V1a receptor [6] it was 2100 nM; on Vasopressin V2 receptor [7], 150 nM. In the assay on Rattus norvegicus [1], the Urine volume was found to be 6 ml 4hr-1.
Regarding `O=C(Nc1ccc(C(=O)N2CCc3c[nH]nc3-c3sccc32)c(Cl)c1)c1ccccc1-c1ccccc1`, the Urine volume in the assay with Rattus norvegicus [2] came to 22 ml 4hr-1; in the assay with Rattus norvegicus [3] it was 27 ml 4hr-1. The same molecule returned an IC50 at Vasopressin V2 receptor [7] of 1.7 nM.
